Reference: patent US20100311912A1, “ANTIMICROBIAL SURFACES” (priority 2008, published 2010)
Converted amounts (≈) assume the structure as drawn. Where two headings read alike, the source gives them in different places.

Columns and labels:
Assay type in all cases: cell-based
[1] = system: Staphylococcus aureus ATCC 29213; test: Broth micro dilution assay for MIC and MBC; conditions: S. aureus ATCC 29213
Description: All bacteria were grown on blood agar plates (Colombia agar-CM331, Oxoid Limited, Basingstoke, Hampshire, United Kingdom) supplemented with 5% v/v sheep blood) at 37° C. The Streptococcus species were incubated at 37° C. in the presence of 5% carbon dioxide (CO2).
Duplicate two-fold serial dilutions of test sample (100 μL/well) were prepared in sterile round-bottom 96-well plates (Sarstedt Australia Pty Ltd, Technology Park, SA, Australia), in the appropriate broth containing 2% DMSO. Bacterial cell suspension (100 μL) corresponding to 1×10^6 CFU/mL was added in all wells with the exception of wells containing saline, test sample and media sterility controls, respectively. Controls for bacterial growth without test sample were also included on each plate. Plates were then placed on a shaker for 10 min and incubated at 37° C. overnight. […] Vancomycin and gentamicin (Sigma, St Louis, Mo., United States of America) were used as positive controls for the Gram-positive and Gram-negative bacteria, respectively. Following the determination of the MIC, the MBC was determined by transferring a 10 μL aliquot from each of the wells at the concentration corresponding to the MIC and those concentrations above into 190 μL of appropriate broth in a sterile 96-well plate. […] The presence or absence of bacterial growth was determined by visual inspection. The MBC was considered to be the lowest concentration of the compound at which no growth occurred.

[2] = system: Gram-positive bacteria including S. aureus, S. pyogenes and S. pneumoniae; test: Broth micro dilution assay, Gram-positive bacteria; conditions: for antimicrobial activity against other Gram-positive bacteria: S. aureus (ATCC 25925), S. pyogenes, S. pneumoniae, values not shown
Description: (§1) Staphylococcus aureus ATCC 29213 obtained from stock cultures stored at −70° C. at the Sansom Institute (University of South Australia, Adelaide, SA, Australia) was used as the test microorganism in a bioassay guided fractionation process. […] All bacteria were grown on blood agar plates (Colombia agar-CM331, Oxoid Limited, Basingstoke, Hampshire, United Kingdom) supplemented with 5% v/v sheep blood) at 37° C. The Streptococcus species were incubated at 37° C. in the presence of 5% carbon dioxide (CO2). Brain Heart Infusion broth (CM 225, Oxoid Limited) was used for the experiments to determine the minimum inhibitory concentration (MIC) and minimum bactericidal concentration (MBC) for the Streptococcus species while cation adjusted MH II broth (Becton Dickinson France SAS, Le Point de Claix, France) was used for the Staphylococcus species and the Gram-negative bacteria tested.
(§2) Broth micro dilution was used to determine the MIC of extract, fractions and pure compounds against S. aureus ATCC 29213. Duplicate two-fold serial dilutions of test sample (100 μL/well) were prepared in sterile round-bottom 96-well plates (Sarstedt Australia Pty Ltd, Technology Park, SA, Australia), in the appropriate broth containing 2% DMSO. Bacterial cell suspension (100 μL) corresponding to 1×10^6 CFU/mL was added in all wells with the exception of wells containing saline, test sample and media sterility controls, respectively. Controls for bacterial growth without test sample were also included on each plate. Plates were then placed on a shaker for 10 min and incubated at 37° C. overnight. […] Vancomycin and gentamicin (Sigma, St Louis, Mo., United States of America) were used as positive controls for the Gram-positive and Gram-negative bacteria, respectively. Following the determination of the MIC, the MBC was determined by transferring a 10 μL aliquot from each of the wells at the concentration corresponding to the MIC and those concentrations above into 190 μL of appropriate broth in a sterile 96-well plate. The plates were incubated under the same conditions as in the MIC experiment with the Streptococcus species incubated in the presence of 5% CO2. The presence or absence of bacterial growth was determined by visual inspection. The MBC was considered to be the lowest concentration of the compound at which no growth occurred.

[3] = system: Pseudomonas aeruginosa ATCC 27853; test: Broth micro dilution assay for MIC and MBC; conditions: ATCC27853, P. aeruginosa ATCC 27853, maximum concentration tested 250 μg/mL
Description: as §1, §2

[4] = system: Streptococcus pneumoniae ATCC 49619; test: Broth micro dilution assay for MIC and MBC; conditions: ATCC49619, S. pneumoniae ATCC 49619
Description: as §1, §2

[5] = system: Salmonella typhimurium ATCC 13311; test: Broth micro dilution assay for MIC and MBC; conditions: Salmonella enterica; S. typhimurium ATCC 13311; maximum concentration tested 250 μg/mL
Description: as §1, §2

[6] = system: Streptococcus pyogenes ATCC 10389; test: Broth micro dilution assay for MIC and MBC; conditions: ATCC10389, S. pyogenes ATCC 10389
Description: as §1, §2

[7] = system: Staphylococcus aureus ATCC 25923; test: Broth micro dilution assay for MIC and MBC; conditions: ATCC25923, S. aureus ATCC 25923
Description: as §1, §2

[8] = system: Escherichia coli ATCC 25922; test: Broth micro dilution assay for MIC and MBC; conditions: ATCC25922, E. coli ATCC 25922, maximum concentration tested 250 μg/mL
Description: as §1, §2

[9] = system: Gram-negative bacteria tested; test: Broth micro dilution assay, Gram-negative bacteria; conditions: all Gram-negative bacteria tested, maximum concentrations tested
Description: as §1
Broth micro dilution was used to determine the MIC of extract, fractions and pure compounds against S. aureus ATCC 29213. […] Following the determination of the MIC, the MBC was determined by transferring a 10 μL aliquot from each of the wells at the concentration corresponding to the MIC and those concentrations above into 190 μL of appropriate broth in a sterile 96-well plate. […] The presence or absence of bacterial growth was determined by visual inspection. […]

[10] = range over Gram-positive bacteria of Table 2

Compound CC(=O)OCC(CCC=C(C)C)C1CCC(C)c2ccc(C(=O)O)c(O)c21 (stereo not shown) [Compound 3, 20-acetoxy-8-hydroxyserrulat-14-en-19-oic acid] has an MIC [1] of 125 µg/mL (≈ 334 µM).

With “8,20-diacetoxyserrulat-14-en-19-oic acid [Compound 5]” the MIC [1] was 250 µg/mL.

In the case of CC(C)=CCCC(C)C1CCC(C)c2cc(CO)c(O)cc21 (stereo not shown) [Compound 7, 8,19-dihydroxyserrulat-14-ene], the “antimicrobial activity against other Gram-positive bacteria” value [2] was “showed antimicrobial activity”.

“8,20-dihydroxyserrulat-14-en-19-oic acid [Compound 4]” showed an MIC [1] of 250 µg/mL.

Work on CC(C)=CCCC1COC2=C(C)C(=O)C(=O)c3cccc1c32 (stereo not shown) [Compound 2, 9-methyl-3-(4-methyl-3-pentenyl)-2,3-dihydronaphtho[1,8-bc]pyran-7,8-dione] yielded an MBC [2, 10] of 7.8 to 125 µg/mL (≈ 26.3 to 422 µM), an MIC [2, 10] of 7.8 to 15.6 µg/mL (≈ 26.3 to 52.6 µM) and an MBC ([1]; Staphylococcus aureus, ATCC29213) of 125 µg/mL (≈ 422 µM). For the same compound, the MIC ([1]; Staphylococcus aureus, ATCC29213, read-out: MIC) was 15.6 µg/mL (≈ 52.6 µM), the MBC [3] was greater than 250 µg/mL and the MIC [3] was greater than 250 µg/mL. It also gave an MBC [4] of 7.8 µg/mL (≈ 26.3 µM), an MIC [4] of 7.8 µg/mL (≈ 26.3 µM) and an MBC [5] greater than 250 µg/mL. The MIC [5] was greater than 250 µg/mL, the MBC [6] was 15.6 µg/mL (≈ 52.6 µM) and the MIC [6] was 7.8 µg/mL (≈ 26.3 µM). For the same compound, the MBC [7] was 15.6 µg/mL (≈ 52.6 µM), the MIC [7] was 7.8 µg/mL (≈ 26.3 µM) and the MBC [8] was greater than 250 µg/mL. For the same compound, the MIC [8] was greater than 250 µg/mL and the “activity against Gram-negative bacteria” value [9] was “Activity was not observed”.

CC(C)=CCCC(C)C1CCC(C)c2cc(C(=O)O)c(O)cc21 (stereo not shown) [Compound 8, 8-hydroxyserrulat-14-en-19-oic acid] was tested, and the “antimicrobial activity against other Gram-positive bacteria” value [2] was “showed antimicrobial activity”.
